Source: the NIST ThermoML archive (doi:10.1016/j.jct.2007.03.012)

Test: xn = mol fraction of the nth substance listed
Conditions: Liquid, Bellows volumetry

CC(C)C [2-methylpropane] + CCC
mass density [kg/m3]
Conditions	280 K	300 K	320 K	340 K	360 K
1000 kPa, x2 = 0.2765	562.64	–	508.11	–	–
1000 kPa, x2 = 0.5052	551.34	524.22	–	–	–
1000 kPa, x2 = 0.7468	537.6	–	–	–	–
2000 kPa, x2 = 0.2765	564.6	–	511.38	–	–
2000 kPa, x2 = 0.5052	553.2	526.6	497.06	461.7	–
2000 kPa, x2 = 0.7468	539.46	–	479.56	–	–
3000 kPa, x2 = 0.2765	566.3	–	514.42	–	445.63
3000 kPa, x2 = 0.5052	555.01	529.08	500.46	467.03	423.27
3000 kPa, x2 = 0.7468	541.38	–	483.56	–	–
5000 kPa, x2 = 0.2765	569.29	–	520.11	–	458.57
5000 kPa, x2 = 0.5052	558.39	533.59	506.63	476.37	439.84
5000 kPa, x2 = 0.7468	545.05	–	490.55	–	415.25
10000 kPa, x2 = 0.2765	576.64	–	531.88	–	480.82
10000 kPa, x2 = 0.5052	565.97	543.3	519.45	493.82	465.78
10000 kPa, x2 = 0.7468	553.18	–	504.71	–	447.04
20000 kPa, x2 = 0.2765	589.39	–	550.35	–	509.06
20000 kPa, x2 = 0.5052	579.24	559.15	538.88	518.13	496.7
20000 kPa, x2 = 0.7468	566.92	–	525.65	–	–
30000 kPa, x2 = 0.2765	600.09	–	564.57	–	–
30000 kPa, x2 = 0.5052	590.28	572.02	553.95	535.68	–
30000 kPa, x2 = 0.7468	578.25	–	541.33	–	–
40000 kPa, x2 = 0.2765	609.41	–	576.53	–	–
40000 kPa, x2 = 0.5052	599.56	582.88	566.43	549.83	–
40000 kPa, x2 = 0.7468	588.02	–	553.96	–	–
50000 kPa, x2 = 0.2765	617.7	–	586.9	–	–
50000 kPa, x2 = 0.5052	608.07	592.36	576.96	561.5	–
50000 kPa, x2 = 0.7468	596.76	–	564.8	–	–
60000 kPa, x2 = 0.2765	625.03	–	595.84	–	–
60000 kPa, x2 = 0.5052	615.65	600.74	586.25	571.92	–
60000 kPa, x2 = 0.7468	604.59	–	574.56	–	–
70000 kPa, x2 = 0.2765	632.03	–	604.2	–	–
70000 kPa, x2 = 0.5052	622.58	608.66	594.64	581.17	–
70000 kPa, x2 = 0.7468	611.65	–	583.04	–	–
80000 kPa, x2 = 0.2765	638.32	–	611.65	–	–
80000 kPa, x2 = 0.5052	629.12	615.58	602.37	589.45	–
80000 kPa, x2 = 0.7468	618.29	–	590.88	–	–
90000 kPa, x2 = 0.2765	644.2	–	618.46	–	–
90000 kPa, x2 = 0.5052	635.05	622.2	609.27	597.11	–
90000 kPa, x2 = 0.7468	624.34	–	598.03	–	–
100000 kPa, x2 = 0.2765	649.78	–	625.01	–	–
100000 kPa, x2 = 0.5052	640.63	628.29	615.79	603.84	–
100000 kPa, x2 = 0.7468	629.98	–	604.67	–	–
120000 kPa, x2 = 0.2765	659.95	–	636.48	–	–
120000 kPa, x2 = 0.5052	650.88	639.23	627.71	616.54	–
120000 kPa, x2 = 0.7468	640.58	–	616.69	–	–
140000 kPa, x2 = 0.2765	669.13	–	647	–	–
140000 kPa, x2 = 0.5052	660.2	649.29	638.12	627.45	–
140000 kPa, x2 = 0.7468	649.88	–	627.42	–	–
160000 kPa, x2 = 0.2765	677.73	–	656.27	–	–
160000 kPa, x2 = 0.5052	668.68	658.13	647.73	637.64	–
160000 kPa, x2 = 0.7468	658.46	–	636.99	–	–
180000 kPa, x2 = 0.2765	685.38	–	665.05	–	–
180000 kPa, x2 = 0.5052	676.44	666.5	656.41	646.63	–
180000 kPa, x2 = 0.7468	666.22	–	645.7	–	–
200000 kPa, x2 = 0.2765	692.5	–	673	–	–
200000 kPa, x2 = 0.5052	683.68	674.16	664.56	655.11	–
200000 kPa, x2 = 0.7468	673.88	–	653.87	–	–
